Measured values reported in patent US20240182531A1, “KV1.3 Blockers” (priority 2021, published 2024).
Where a SMILES comes first, the peptide text is derived from it. Bridges are numbered along the chain shown (N, C = ends). [ ]: non-standard residue; d: D form. Nle = CCCC[C@H](N)C(=O)O; Abu = CC[C@H](N)C(=O)O

What was measured:
human Kv1.1 = target: T1, human Kv1.1 (Homo sapiens, UniProt Q09470); assay: cell-based; conditions: ratio of patch clamp IC50 values
T1 construct: expressed in transfected cells; host or cells: CHO

human Kv1.2 = target: T2, human Kv1.2 (Homo sapiens, UniProt P16389); assay: cell-based; conditions: ratio of patch clamp IC50 values
T2 construct: expressed in transfected cells; host or cells: CHO

human Kv1.6 = target: T3, human Kv1.6 (Homo sapiens, UniProt P17658); assay: cell-based; conditions: ratio of patch clamp IC50 values
T3 construct: expressed in transfected cells; host or cells: CHO

Rat whole blood = Rat whole blood (Rattus norvegicus, UniProt P15384); type: cell-based; conditions: IL-17A release, thapsigargin, 24 Hr, at least 2 replicates
Chain of Rat whole blood (P15384 whole entry): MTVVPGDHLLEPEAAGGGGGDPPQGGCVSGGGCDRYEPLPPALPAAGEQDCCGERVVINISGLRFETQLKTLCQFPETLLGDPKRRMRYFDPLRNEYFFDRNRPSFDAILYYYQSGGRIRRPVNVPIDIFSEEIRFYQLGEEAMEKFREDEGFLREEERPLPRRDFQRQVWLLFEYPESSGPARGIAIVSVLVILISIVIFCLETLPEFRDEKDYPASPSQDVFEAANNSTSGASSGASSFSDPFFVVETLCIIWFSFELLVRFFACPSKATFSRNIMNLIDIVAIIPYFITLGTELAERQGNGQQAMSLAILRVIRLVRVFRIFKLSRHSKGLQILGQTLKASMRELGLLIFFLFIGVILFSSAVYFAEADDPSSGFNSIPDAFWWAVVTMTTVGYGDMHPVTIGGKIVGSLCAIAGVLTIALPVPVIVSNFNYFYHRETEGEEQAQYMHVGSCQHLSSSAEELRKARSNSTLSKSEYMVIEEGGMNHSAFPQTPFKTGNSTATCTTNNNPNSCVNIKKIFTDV

T3 sequence (P17658 whole entry): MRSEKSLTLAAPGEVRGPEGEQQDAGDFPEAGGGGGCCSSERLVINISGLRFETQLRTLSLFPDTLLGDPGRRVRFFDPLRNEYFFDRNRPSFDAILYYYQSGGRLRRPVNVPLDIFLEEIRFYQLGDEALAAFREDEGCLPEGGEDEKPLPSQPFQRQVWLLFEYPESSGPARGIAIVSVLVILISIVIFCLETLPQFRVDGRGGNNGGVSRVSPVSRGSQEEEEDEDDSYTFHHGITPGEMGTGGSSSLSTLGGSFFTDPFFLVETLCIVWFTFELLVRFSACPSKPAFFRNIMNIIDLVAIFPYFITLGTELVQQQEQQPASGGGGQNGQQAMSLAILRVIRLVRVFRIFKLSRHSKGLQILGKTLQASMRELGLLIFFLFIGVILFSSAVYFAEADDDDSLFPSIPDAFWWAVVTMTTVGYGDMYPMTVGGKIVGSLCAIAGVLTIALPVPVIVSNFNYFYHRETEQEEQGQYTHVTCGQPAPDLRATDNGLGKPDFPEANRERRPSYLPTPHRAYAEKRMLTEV
T1 sequence (Q09470 whole entry): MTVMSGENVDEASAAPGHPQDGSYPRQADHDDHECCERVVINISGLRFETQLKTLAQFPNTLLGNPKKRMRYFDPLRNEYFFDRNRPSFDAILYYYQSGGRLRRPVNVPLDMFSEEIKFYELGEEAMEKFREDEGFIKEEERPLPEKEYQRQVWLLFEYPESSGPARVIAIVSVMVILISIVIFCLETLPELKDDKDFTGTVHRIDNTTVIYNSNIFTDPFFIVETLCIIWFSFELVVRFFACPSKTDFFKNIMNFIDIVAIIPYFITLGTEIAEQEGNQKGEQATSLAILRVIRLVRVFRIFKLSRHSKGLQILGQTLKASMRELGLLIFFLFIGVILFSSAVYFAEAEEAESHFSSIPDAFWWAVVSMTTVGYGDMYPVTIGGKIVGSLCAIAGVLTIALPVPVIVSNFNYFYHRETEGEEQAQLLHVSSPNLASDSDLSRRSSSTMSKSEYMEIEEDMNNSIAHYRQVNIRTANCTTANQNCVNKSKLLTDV
T2 sequence (P16389 whole entry): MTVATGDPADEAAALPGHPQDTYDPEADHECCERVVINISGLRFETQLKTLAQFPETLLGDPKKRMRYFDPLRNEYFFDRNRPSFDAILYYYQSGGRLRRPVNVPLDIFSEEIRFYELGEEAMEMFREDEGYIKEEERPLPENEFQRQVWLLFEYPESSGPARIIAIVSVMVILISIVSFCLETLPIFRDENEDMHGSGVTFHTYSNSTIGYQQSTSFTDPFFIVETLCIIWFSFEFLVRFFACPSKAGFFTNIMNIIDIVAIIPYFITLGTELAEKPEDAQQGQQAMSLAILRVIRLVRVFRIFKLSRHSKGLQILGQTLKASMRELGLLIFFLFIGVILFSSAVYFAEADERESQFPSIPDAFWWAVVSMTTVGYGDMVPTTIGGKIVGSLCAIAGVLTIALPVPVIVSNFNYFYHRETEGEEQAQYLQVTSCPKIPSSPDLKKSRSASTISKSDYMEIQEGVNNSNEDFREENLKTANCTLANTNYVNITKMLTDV

Compound | Selectivity ratio Kv1.1/Kv1.3 (human Kv1.1) | Selectivity ratio Kv1.2/Kv1.3 (human Kv1.2) | Selectivity ratio Kv1.6/Kv1.3 (human Kv1.6) | IC50 (Rat whole blood)
CCCC[C@@H]1NC(=O)[C@@H]2CSSC[C@H](NC(=O)[C@H](CCCNC(=N)N)NC(=O)[C@H](CCCC)NC(=O)[C@H](CC(=O)O)NC(=O)[C@H](CCCC)NC(=O)[C@@H](N)CC(N)=O)C(=O)N[C@@H](CO)C(=O)N[C@@H](C)C(=O)N[C@@H](CO)C(=O)N[C@@H](C(C)C)C(=O)N[C@@H](CCC(=O)O)C(=O)N[C@H]3CSSC[C@H](NC(=O)[C@H](CCCCN)NC(=O)[C@H](CCCCN)NC(=O)[C@H](CC(N)=O)NC1=O)C(=O)N[C@@H](CCCCN)C(=O)N[C@H](C(=O)N[C@@H](Cc1ccc(O)cc1)C(=O)N1CCC[C@H]1C(=O)N[C@@H](CCCNC(=N)N)C(N)=O)CSSC[C@H](NC(=O)[C@H](CCCCN)NC(=O)[C@H](CCC(N)=O)NC(=O)[C@H](CCCCN)NC3=O)C(=O)N[C@@H](CC(C)C)C(=O)N[C@@H](CCCCN)C(=O)N[C@@H](C)C(=O)N[C@@H]([C@@H](C)CC)C(=O)NCC(=O)N[C@@H](CO)C(=O)N[C@@H]([C@@H](C)CC)C(=O)N[C@@H](Cc1ccccc1)C(=O)NCC(=O)N[C@@H](CCCCN)C(=O)N2 [compound 44] (H-N[Nle]D[Nle]RCSASVECKQKCLKAIGSIFGKC[Nle]NKKCKCYPR-NH2; disulfide 6-27, 12-32, 16-34) | >11600 | 436 | 7073 | –
CCCC[C@H](NC(=O)[C@H](CC(=O)O)NC(=O)[C@H](CCCC)NC(=O)[C@@H](N)CO)C(=O)N[C@@H](CCCNC(=N)N)C(=O)N[C@H]1CSSC[C@@H]2NC(=O)[C@H](CCCCN)NC(=O)CNC(=O)[C@H](Cc3ccccc3)NC(=O)[C@H]([C@@H](C)CC)NC(=O)[C@H](CO)NC(=O)CNC(=O)[C@H]([C@@H](C)CC)NC(=O)[C@H](C)NC(=O)[C@H](CCCCN)NC(=O)[C@H](CC(C)C)NC(=O)[C@@H]3CSSC[C@@H](C(=O)N[C@@H](Cc4ccc(O)cc4)C(=O)N4CCC[C@H]4C(=O)N[C@@H](CCCNC(=N)N)C(N)=O)NC(=O)[C@H](CCCCN)NC(=O)[C@H](CSSC[C@H](NC(=O)[C@H](CCC(=O)O)NC(=O)[C@H](C(C)C)NC(=O)[C@H](CO)NC(=O)[C@H](C)NC(=O)[C@H](CO)NC1=O)C(=O)N[C@@H](C)C(=O)N[C@@H](CCC(N)=O)C(=O)N[C@@H](CO)C(=O)N3)NC(=O)[C@H](CCCCN)NC(=O)[C@H](CCCCN)NC(=O)[C@H](CC(N)=O)NC(=O)[C@H](CCSC)NC2=O [compound 78] (H-S[Nle]D[Nle]RCSASVECAQSCLKAIGSIFGKCMNKKCKCYPR-NH2; disulfide 6-27, 12-32, 16-34) | >14600 | 5596 | >14600 | –
CC[C@H](C)[C@@H]1NC(=O)[C@H](C)NC(=O)[C@H](CCCCN)NC(=O)[C@H](CC(C)C)NC(=O)[C@@H]2CSSC[C@@H](C(=O)N[C@@H](Cc3ccc(O)cc3)C(=O)N3CCC[C@H]3C(=O)N[C@@H](CCCNC(=N)N)C(=O)O)NC(=O)[C@H](CCCCN)NC(=O)[C@@H]3CSSC[C@H](NC(=O)[C@H](CCC(=O)O)NC(=O)[C@H](C(C)C)NC(=O)[C@H](CO)NC(=O)[C@H](C)NC(=O)[C@H](CO)NC(=O)[C@@H](NC(=O)[C@H](CCCNC(=N)N)NC(=O)[C@H](CCSC)NC(=O)[C@H](CC(=O)O)NC(=O)[C@H](CCSC)NC(=O)[C@@H](N)CCC(N)=O)CSSC[C@H](NC(=O)[C@H](CCCCN)NC(=O)CNC(=O)[C@H](Cc4ccccc4)NC(=O)CNC(=O)[C@H](CCCNC(=N)N)NC(=O)CNC1=O)C(=O)N[C@@H](CCSC)C(=O)N[C@@H](CC(N)=O)C(=O)N[C@@H](CCCCN)C(=O)N[C@@H](CCCCN)C(=O)N3)C(=O)N[C@@H](CCCCN)C(=O)N[C@@H](CCC(N)=O)C(=O)N[C@@H](CCCCN)C(=O)N2 [compound 16] (H-QMDMRCSASVECKQKCLKAIGRGFGKCMNKKCKCYPR-OH; disulfide 6-27, 12-32, 16-34) | >2000 | 65 | 1204 | –
CC[C@H](C)[C@@H]1NC(=O)[C@H](C)NC(=O)[C@H](CCCCN)NC(=O)[C@H](CC(C)C)NC(=O)[C@@H]2CSSC[C@@H](C(=O)N[C@@H](Cc3ccc(O)cc3)C(=O)N3CCC[C@H]3C(=O)N[C@@H](CCCNC(=N)N)C(=O)O)NC(=O)[C@H](CCCCN)NC(=O)[C@@H]3CSSC[C@H](NC(=O)[C@H](CCC(=O)O)NC(=O)[C@H](C(C)C)NC(=O)[C@H](CO)NC(=O)[C@H](C)NC(=O)[C@H](CO)NC(=O)[C@@H](NC(=O)[C@H](CCCNC(=N)N)NC(=O)[C@H](CCSC)NC(=O)[C@H](CC(=O)O)NC(=O)[C@@H](N)CCSC)CSSC[C@H](NC(=O)[C@H](CCCCN)NC(=O)CNC(=O)[C@H](Cc4ccccc4)NC(=O)[C@H]([C@@H](C)CC)NC(=O)[C@H](CO)NC(=O)CNC1=O)C(=O)N[C@@H](CCSC)C(=O)N[C@@H](CC(N)=O)C(=O)N[C@@H](CCCCN)C(=O)N[C@@H](CCCCN)C(=O)N3)C(=O)N[C@@H](CCCCN)C(=O)N[C@@H](CCC(N)=O)C(=O)N[C@@H](CCCCN)C(=O)N2 [compound 18] (H-MDMRCSASVECKQKCLKAIGSIFGKCMNKKCKCYPR-OH; disulfide 5-26, 11-31, 15-33) | >7900 | 747 | >7900 | –
CC[C@H](C)[C@@H]1NC(=O)[C@H](CO)NC(=O)CNC(=O)[C@H](Cc2ccc(O)cc2)NC(=O)[C@H](C)NC(=O)[C@H](CCCCN)NC(=O)[C@H](CC(C)C)NC(=O)[C@@H]2CSSC[C@@H](C(=O)N[C@@H](Cc3ccc(O)cc3)C(=O)N3CCC[C@H]3C(=O)N[C@@H](CCCNC(=N)N)C(N)=O)NC(=O)[C@H](CCCCN)NC(=O)[C@@H]3CSSC[C@H](NC(=O)[C@H](CCC(=O)O)NC(=O)[C@H](C(C)C)NC(=O)[C@H](CO)NC(=O)[C@H](C)NC(=O)[C@H](CO)NC(=O)[C@@H](NC(=O)[C@H](CCCNC(=N)N)NC(=O)[C@H](CCSC)NC(=O)[C@H](CC(=O)O)NC(=O)[C@H](CCSC)NC(=O)[C@@H](N)CC(N)=O)CSSC[C@H](NC(=O)[C@H](CCCCN)NC(=O)CNC(=O)[C@H](Cc4ccccc4)NC1=O)C(=O)N[C@@H](CCSC)C(=O)N[C@@H](CC(N)=O)C(=O)N[C@@H](CCCCN)C(=O)N[C@@H](CCCCN)C(=O)N3)C(=O)N[C@@H](CCCCN)C(=O)N[C@@H](CCC(N)=O)C(=O)N[C@@H](CCCCN)C(=O)N2 [compound 61] (H-NMDMRCSASVECKQKCLKAYGSIFGKCMNKKCKCYPR-NH2; disulfide 6-27, 12-32, 16-34) | >8800 | 426 | >8800 | –
CC[C@H](C)[C@@H]1NC(=O)[C@H](CCCNC(=N)N)NC(=O)[C@H](CCCCN)NC(=O)[C@H](CC(C)C)NC(=O)[C@@H]2CSSC[C@@H](C(=O)N[C@@H](Cc3ccc(O)cc3)C(=O)N3CCC[C@H]3C(=O)N[C@@H](CCCNC(=N)N)C(N)=O)NC(=O)[C@H](CCCCN)NC(=O)[C@@H]3CSSC[C@H](NC(=O)[C@H](CCC(=O)O)NC(=O)[C@H](C(C)C)NC(=O)[C@H](CO)NC(=O)[C@H](C)NC(=O)[C@H](CO)NC(=O)[C@@H](NC(=O)[C@H](CCCNC(=N)N)NC(=O)[C@H](CCSC)NC(=O)[C@H](CC(=O)O)NC(=O)[C@H](CCSC)NC(=O)[C@@H](N)CC(N)=O)CSSC[C@H](NC(=O)[C@H](CCCCN)NC(=O)CNC(=O)[C@H](Cc4ccccc4)NC(=O)[C@H]([C@@H](C)CC)NC(=O)[C@H](CO)NC(=O)CNC1=O)C(=O)N[C@@H](CCSC)C(=O)N[C@@H](CC(N)=O)C(=O)N[C@@H](CCCCN)C(=O)N[C@@H](CCCCN)C(=O)N3)C(=O)N[C@@H](CCCCN)C(=O)N[C@@H](CCC(N)=O)C(=O)N[C@@H](CCCCN)C(=O)N2 [compound 60] (H-NMDMRCSASVECKQKCLKRIGSIFGKCMNKKCKCYPR-NH2; disulfide 6-27, 12-32, 16-34) | >9900 | 187 | 3062 | –
CCCC[C@@H]1NC(=O)[C@@H]2CSSC[C@H](NC(=O)[C@H](CCCNC(=N)N)NC(=O)[C@H](CCCC)NC(=O)[C@H](CC(=O)O)NC(=O)[C@H](CCCC)NC(=O)[C@@H](N)CO)C(=O)N[C@@H](CO)C(=O)N[C@@H](C)C(=O)N[C@@H](CO)C(=O)N[C@@H](C(C)C)C(=O)N[C@@H](CCC(=O)O)C(=O)N[C@H]3CSSC[C@H](NC(=O)[C@H](CCCCN)NC(=O)[C@H](CCCCN)NC(=O)[C@H](CC(N)=O)NC1=O)C(=O)N[C@@H](CCCCN)C(=O)N[C@H](C(=O)N[C@@H](Cc1ccc(O)cc1)C(=O)N1CCC[C@H]1C(=O)N[C@@H](CCCNC(=N)N)C(N)=O)CSSC[C@H](NC(=O)[C@H](CCCCN)NC(=O)[C@H](CCC(N)=O)NC(=O)[C@H](CCCCN)NC3=O)C(=O)N[C@@H](CC(C)C)C(=O)N[C@@H](CCCCN)C(=O)N[C@@H](C)C(=O)N[C@@H]([C@@H](C)CC)C(=O)NCC(=O)N[C@@H](CO)C(=O)N[C@@H]([C@@H](C)CC)C(=O)N[C@@H](Cc1ccccc1)C(=O)NCC(=O)N[C@@H](CCCCN)C(=O)N2 [compound 66] (H-S[Nle]D[Nle]RCSASVECKQKCLKAIGSIFGKC[Nle]NKKCKCYPR-NH2; disulfide 6-27, 12-32, 16-34) | – | – | – | 0.47 nM
H-PIDERCSASVECKQKCLAAIGSIFGKC[Nle]NKKCKCYPR-OH (cysteine pairing not given here) [compound 94] | – | – | – | 0.87 nM
H-S[Nle]D[Nle]RCSA[Abu]VECKQKCLKAIGSIFGKCMNKKCKCYPR-NH2 (cysteine pairing not given here) [compound 68] | – | – | – | 0.93 nM
H-S[Nle]D[Nle]RCSASVECKQKCLKAIGSIFG[homo-Lys]CMNKKCKCYPR-NH2 [compound 69] | – | – | – | 2.7 nM
Ac-LRCSASVECKQKCLAAIGSIFGKC[Nle]NKKCKCYPR-OH (cysteine pairing not given here) [compound 104] | – | – | – | 0.9 nM
